Assay results reported in patent US11174226B2, “Azetidinimines as carbapenemases inhibitors” (priority 2015, dated 2021).
pIC50: −log10 of the molar value.

Key:
[1] = target: OXA-48 Enzyme (Klebsiella pneumoniae, UniProt Q6XEC0); experiment: Imipenem hydrolysis followed by UV absorbance slope, OXA-48 enzyme; type: biochemical; conditions: for inhibition at 10 µM / OXA-48 Enzyme Inhibition %: C 10 μM; for OXA-48 Enzyme, effect in words: Inhibition %, IC50
Experimental: (§1) These tests were conducted by comparing UV absorbance slope measurements of impenem alone, and then imipenem with the concerned azetidinimines at given concentrations in the presence of the enzyme. It was thus possible to monitor the hydrolysis of imipenem. Lower the value of the slope, the higher is the percentage of inhibition of the enzyme.

[2] = target: NDM-1 Enzyme (Klebsiella pneumoniae, UniProt C7C422); experiment: Imipenem hydrolysis followed by UV absorbance slope, NDM-1 enzyme; type: biochemical; conditions: for inhibition at 5 µM: C 5 μM
NDM-1 Enzyme, sequence (C7C422 29-270, looked up, species assumed): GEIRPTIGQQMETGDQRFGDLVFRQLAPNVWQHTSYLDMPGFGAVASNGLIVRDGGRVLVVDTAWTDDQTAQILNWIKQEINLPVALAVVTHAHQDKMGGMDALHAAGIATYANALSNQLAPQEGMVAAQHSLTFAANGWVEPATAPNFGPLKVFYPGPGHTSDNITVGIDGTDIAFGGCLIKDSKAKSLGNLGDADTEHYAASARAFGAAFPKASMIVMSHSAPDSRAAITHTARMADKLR
Experimental: as §1

[3] = target: KPC Enzyme (Klebsiella pneumoniae, UniProt Q9F663); experiment: Imipenem hydrolysis followed by UV absorbance slope, KPC enzyme; type: biochemical; conditions: for inhibition at 10 µM / KPC Enzyme Inhibition %: C 10 μM; for inhibition at 5 µM: C 5 μM
KPC Enzyme, sequence (Q9F663 25-293, looked up): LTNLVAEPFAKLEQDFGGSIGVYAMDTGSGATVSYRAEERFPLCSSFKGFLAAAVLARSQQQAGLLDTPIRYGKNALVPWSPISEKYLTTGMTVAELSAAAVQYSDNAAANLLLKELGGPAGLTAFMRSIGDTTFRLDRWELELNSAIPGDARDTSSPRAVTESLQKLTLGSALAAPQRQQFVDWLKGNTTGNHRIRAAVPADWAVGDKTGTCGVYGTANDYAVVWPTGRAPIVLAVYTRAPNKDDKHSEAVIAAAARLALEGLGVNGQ
Experimental: as §1

[4] = Stability tests of imipenem with increasing concentrations of tested molecules
Experimental: as §1
Stability tests of imipenem with increasing concentrations of tested molecules of the present invention (T4#1, i.e. compound #1 of table 4; T4#7 i.e. compound #7 of table 4; T4#9 i.e. compound #9 of table 4; T4#2 i.e. compound #2 of table 4) were also conducted (Table 2).

OXA-48 Enzyme, sequence (Q6XEC0 23-265, looked up, species assumed): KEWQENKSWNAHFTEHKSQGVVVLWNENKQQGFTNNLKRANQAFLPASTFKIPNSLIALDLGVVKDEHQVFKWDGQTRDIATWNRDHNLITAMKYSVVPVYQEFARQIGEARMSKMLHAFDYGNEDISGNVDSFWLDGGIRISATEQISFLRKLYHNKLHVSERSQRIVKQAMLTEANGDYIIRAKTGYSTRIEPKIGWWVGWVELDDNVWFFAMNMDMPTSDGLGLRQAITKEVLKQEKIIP

Row | Compound | pIC50 [2] | pIC50 [3] | pIC50 [1] | further results
1 | COc1ccc(C2C/C(=N\c3ccccc3)N2c2ccc(OC)cc2)cc1 (stereo not shown) | 5.00 to 5.30 | – | – | inhibition at 10 µM [1]: 3%; inhibition at 10 µM ([2]; C 10 μM): 67%; inhibition at 10 µM [3]: 7%
2 | COc1ccc(N2/C(=N/c3ccccc3)CC2c2ccc(F)cc2)cc1 (stereo not shown) | – | – | – | OXA-48 Enzyme, effect in words [1]: No reported effect; inhibition at 10 µM ([2]; C 10 μM): 9%; inhibition at 10 µM [3]: 10%
3 | COc1ccc(N2/C(=N/c3ccccc3)CC2c2cc(Cl)cc(Cl)c2)cc1 (stereo not shown) | 5.30 to 5.60 | 5.30 to 5.60 | – | inhibition at 5 µM ([1]; C 5 μM): 15%; inhibition at 5 µM [2]: 97%; inhibition at 5 µM [3]: 84%
4 | COc1ccc(N2/C(=N/c3ccccc3)CC2c2ccc3ccccc3c2)cc1 (stereo not shown) | 5.30 to 5.60 | 5.15 to 5.30 | 4.70 to 5.00 | inhibition at 20 µM ([1]; C 20 μM): 94%; inhibition at 5 µM [2]: 94%; inhibition at 10 µM [3]: 99%
5 | COc1ccc(N2/C(=N/c3ccccc3)CC2c2cccnc2)cc1 (stereo not shown) | < 4.00 | < 4.00 | – | OXA-48 Enzyme, effect in words [1]: No reported effect; inhibition at 100 µM ([2]; C 100 μM): 23%; inhibition at 100 µM ([3]; C 100 μM): 12%
6 | CSc1ccc(N2/C(=N/c3ccccc3)CC2c2ccccc2)cc1 (stereo not shown) | > 6.00 | > 5.00 | – | inhibition at 10 µM [1]: 15%; inhibition at 5 µM [2]: 98%; inhibition at 20 µM ([3]; C 20 μM): 82%
7 | CCOc1ccc(N2/C(=N/c3ccccc3)CC2c2ccccc2)cc1 (stereo not shown) | 5.30 to 6.30 | > 5.30 | < 5.00 | inhibition at 10 µM [1]: 45%; inhibition at 5 µM [2]: 100%; inhibition at 5 µM [3]: 100%
8 | COc1ccc(N2/C(=N/c3ccc(I)cc3)CC2c2ccc(Cl)cc2)cc1 (stereo not shown) | 6.15 | 5.57 | 5.12 | –
9 | COc1ccc(N2/C(=N/c3ccc(I)cc3)CC2c2ccccc2)cc1 (stereo not shown) | 5.96 | 5.48 | 5.04 | –
10 | COc1ccc(N2/C(=N/c3ccc(Cl)cc3)CC2c2ccc(Cl)cc2)cc1 (stereo not shown) | 6.30 | 5.54 | < 4.30 | –
11 | COc1ccc(N2/C(=N/c3ccc(Cl)cc3)CC2c2ccccc2)cc1 (stereo not shown) | – | 5.70 | < 4.30 | inhibition at 10 µM ([2]; C 10 μM): 100%
12 | COc1ccc(N2/C(=N/c3ccc(C(F)(F)F)cc3)CC2c2ccc(Cl)cc2)cc1 (stereo not shown) | – | 5.44 | < 4.30 | inhibition at 10 µM ([2]; C 10 μM): 100%
13 | CCOc1ccc(N2/C(=N/c3ccc(OC)cc3)CC2c2ccc3ccccc3c2)cc1 (stereo not shown) | 6.22 | 5.62 | 5.13 | –
14 | CCOc1ccc(N2/C(=N/c3ccc(I)cc3)CC2c2ccc3ccccc3c2)cc1 (stereo not shown) | 6.30 | 5.60 | 5.21 | –
15 | COc1ccc(N2/C(=N/c3ccc(I)cc3)CC2c2cc(Cl)cc(Cl)c2)cc1 (stereo not shown) | 6.30 | 5.54 | 5.07 | –
16 | c1ccc(COc2ccc(N3/C(=N/c4ccccc4)CC3c3ccccc3)cc2)cc1 (stereo not shown) | 6.40 | – | – | inhibition at 10 µM [1]: 31%; inhibition at 10 µM [3]: 86%
17 | COc1ccc(N2/C(=N/c3ccccc3)CC2c2ccccc2)cc1OC (stereo not shown) | 5.00 to 5.30 | – | – | inhibition at 10 µM [1]: 9%; inhibition at 10 µM [3]: 17%
18 | c1ccc(/N=C2\CC(c3ccccc3)N2c2ccc3c(c2)OCO3)cc1 (stereo not shown) | 5.30 | – | – | inhibition at 10 µM [1]: 20%; inhibition at 10 µM [3]: 6%
19 | c1ccc(/N=C2\CC(c3ccccc3)N2c2ccc3c(c2)OCCO3)cc1 (stereo not shown) | 5.89 | 5.00 to 5.30 | < 4.30 | –
20 | COc1cccc(N2/C(=N/c3ccccc3)CC2c2ccccc2)c1 (stereo not shown) | 5.89 | 5.00 to 5.30 | < 4.30 | –
21 | COc1cccc(N2/C(=N/c3ccccc3)CC2c2ccc(Cl)cc2)c1 (stereo not shown) | 6.40 | 5.30 to 5.60 | < 4.30 | –
22 | COc1ccccc1N1/C(=N/c2ccccc2)CC1c1ccc(Cl)cc1 (stereo not shown) | 5.96 | 5.00 to 5.30 | < 4.30 | –

Row | Compound | pIC50 [2] | pIC50 [3] | pIC50 [1] | further results
23 | COC(=O)c1ccc(C2C/C(=N\c3ccccc3)N2c2ccccc2)cc1 (stereo not shown) | 5.32 | – | – | inhibition at 10 µM [1]: 3.5%; inhibition at 10 µM [3]: 6%
24 | c1ccc(/N=C2\CC(c3ccccc3)N2c2ccccc2)cc1 (stereo not shown) | 5.92 | 5.22 | – | OXA-48 Enzyme Inhibition % [1]: No measurable effect at 10 μM
25 | CC(C)(C)OC(=O)c1ccc(C2C/C(=N\c3ccccc3)N2c2ccccc2)cc1 (stereo not shown) | 5.74 | – | – | inhibition at 10 µM [1]: 32%; inhibition at 10 µM [3]: 45%
26 | CC(C)(C)OC(=O)COc1ccc(N2/C(=N/c3ccccc3)CC2c2ccc(Cl)cc2)cc1 (stereo not shown) | 5.59 | 5.89 | < 4.30 | –
27 | O=C(O)c1ccc(C2C/C(=N\c3ccccc3)N2c2ccccc2)cc1 (stereo not shown) | 6.15 | < 4.30 | < 4.30 | –
28 | O=C(O)COc1ccc(N2/C(=N/c3ccccc3)CC2c2ccc(Cl)cc2)cc1 (stereo not shown) | 6.22 | < 4.30 | < 4.30 | –
29 | Oc1ccc(N2/C(=N/c3ccccc3)CC2c2ccccc2)cc1 (stereo not shown) | 6.10 | < 4.30 | < 5.00 | –
30 | Oc1ccc(N2/C(=N/c3ccccc3)CC2c2ccc(Cl)cc2)cc1 (stereo not shown) | 5.44 | 5.15 to 5.30 | < 5.00 | –
31 | CC(C)(C)OC(=O)NCCOC(=O)c1ccc(C2C/C(=N\c3ccccc3)N2c2ccccc2)cc1 (stereo not shown) | 5.54 | – | < 4.30 | –
32 | ClCc1ccc(C2C/C(=N\c3ccccc3)N2c2ccccc2)cc1 (stereo not shown) | 5.60 | 5.22 | – | OXA-48 Enzyme Inhibition % [1]: No measurable effect at 10 μM
33 | [N-]=[N+]=NCc1ccc(C2C/C(=N\c3ccccc3)N2c2ccccc2)cc1 (stereo not shown) | – | – | < 4.30 | inhibition at 10 µM ([2]; C 10 μM): 100%; inhibition at 10 µM [3]: 89%
34 | COc1ccc(N2/C(=N/c3ccccc3)CC2c2ccccc2)cc1 (single isomer, unassigned) [Enantiomer 1] | > 5.30 | > 5.00 | – | NDM-1 Enzyme Inhibition % ([2]; C 10 μM): 97%; KPC Enzyme Inhibition % [3]: 70%
35 | COc1ccc(N2/C(=N/c3ccccc3)CC2c2ccccc2)cc1 (single isomer, unassigned) [Enantiomer 2] | > 5.30 | < 5.00 | – | inhibition at 10 µM ([2]; C 10 μM): 95%; KPC Enzyme Inhibition % [3]: 45%
36 | COc1ccc(N2/C(=N/c3ccccc3)CC2c2ccccc2)cc1 (stereo not shown) [T4#1] | – | – | – | Slope (stability test of imipenem) ([4]; C 1 μM of tested molecule): 9; Slope (stability test of imipenem) ([4]; C 10 μM of tested molecule): 50; Slope (stability test of imipenem) ([4]; C 100 μM of tested molecule): 506
37 | COc1ccc(C2C/C(=N\c3ccccc3)N2c2ccccc2)cc1 (stereo not shown) [T4#2, (E)-N-(4-(4-methoxyphenyl)-1-phenylazetidin-2-ylidene)aniline] | – | – | – | Slope (stability test of imipenem) ([4]; C 1 μM of tested molecule): 3; Slope (stability test of imipenem) ([4]; C 10 μM of tested molecule): 30; Slope (stability test of imipenem) ([4]; C 100 μM of tested molecule): 321
38 | COc1cc(N2/C(=N/c3ccccc3)CC2c2ccccc2)cc(OC)c1OC (stereo not shown) [T4#7, (E)-N-(4-phenyl-1-(3,4,5-trimethoxyphenyl)azetidin-2-ylidene)aniline] | – | – | – | Slope (stability test of imipenem) ([4]; C 1 μM of tested molecule): 0; Slope (stability test of imipenem) ([4]; C 10 μM of tested molecule): 10; Slope (stability test of imipenem) ([4]; C 100 μM of tested molecule): 174
39 | COc1ccc(N2/C(=N/c3ccccc3)CC2c2ccc(Cl)cc2)cc1 (stereo not shown) [T4#9, (E)-N-(4-(4-chlorophenyl)-1-(4-methoxyphenyl)azetidin-2-ylidene)aniline] | – | – | – | Slope (stability test of imipenem) ([4]; C 1 μM of tested molecule): 2; Slope (stability test of imipenem) ([4]; C 10 μM of tested molecule): 38; Slope (stability test of imipenem) ([4]; C 100 μM of tested molecule): 390
40 | COc1ccc(N2/C(=N/c3ccccc3)CC2c2ccccc2)cc1 (stereo not shown) [drawing 74] | 5.30 to 5.70 | ~5.15 | – | OXA-48 Enzyme, effect in words [1]: No reported effect; inhibition at 10 µM ([2]; C 10 μM): 90%
41 | COc1cc(N2/C(=N/c3ccccc3)CC2c2ccccc2)cc(OC)c1OC (stereo not shown) [drawing 75] | < 4.30 | < 4.30 | – | OXA-48 Enzyme, effect in words [1]: No reported effect; inhibition at 50 µM ([2]; C 50 μM): 78%
42 | COc1ccc(N2/C(=N/c3ccccc3)CC2c2ccc(Cl)cc2)cc1 (stereo not shown) [drawing 76] | 5.30 to 5.70 | – | – | OXA-48 Enzyme IC50 [1]: Solubility problems; inhibition at 50 µM ([1]; C 50 μM): 21%; inhibition at 10 µM ([2]; C 10 μM): 96%; inhibition at 50 µM ([3]; C 50 μM): 44%
43 | COc1ccc(C2C/C(=N\c3ccccc3)N2c2ccccc2)cc1 (stereo not shown) [drawing 77] | < 5.00 | – | – | OXA-48 Enzyme, effect in words [1]: No reported effect; inhibition at 20 µM ([2]; C 20 μM): 58%; KPC Enzyme, effect in words ([3]; Inhibition %, IC50): No reported effect
